Laboratory results taken from ChEMBL document CHEMBL1649227, “In vitro antiviral activity of V-073 against polioviruses” (Antimicrob Agents Chemother, 2009).

Experiments:
Format in all cases: functional, organism-based
Enterovirus C [1] = assay: Antiviral activity against Poliovirus 10235 serotype PV1 obtained from circulating vaccine infected in […] LLC-MK2 cells assessed as inhibition of viral-replication induced cytopathic effect; conditions: 10235 serotype PV1, LLC-MK2
Enterovirus C [2] = assay: Antiviral activity against Poliovirus 10236 serotype PV1 obtained from circulating vaccine infected in […] LLC-MK2 cells assessed as inhibition of viral-replication induced cytopathic effect; conditions: 10236 serotype PV1, LLC-MK2
Enterovirus C [3] = assay: Antiviral activity against Poliovirus 10238 serotype PV1 obtained from circulating vaccine infected in […] LLC-MK2 cells assessed as inhibition of viral-replication induced cytopathic effect; conditions: 10238 serotype PV1, LLC-MK2
Enterovirus C [4] = assay: Antiviral activity against Poliovirus 10237 serotype PV1 obtained from circulating vaccine infected in […] LLC-MK2 cells assessed as inhibition of viral-replication induced cytopathic effect; conditions: 10237 serotype PV1, LLC-MK2
Enterovirus C [5] = assay: Antiviral activity against Poliovirus 10239 serotype PV1 obtained from circulating vaccine infected in […] LLC-MK2 cells assessed as inhibition of viral-replication induced cytopathic effect; conditions: 10239 serotype PV1, LLC-MK2
Enterovirus C [6] = assay: Antiviral activity against Poliovirus 10240 serotype PV1 obtained from circulating vaccine infected in […] LLC-MK2 cells assessed as inhibition of viral-replication induced cytopathic effect; conditions: 10240 serotype PV1, LLC-MK2
Enterovirus C [7] = assay: Antiviral activity against Poliovirus 10241 serotype PV1 obtained from circulating vaccine infected in […] LLC-MK2 cells assessed as inhibition of viral-replication induced cytopathic effect; conditions: 10241 serotype PV1, LLC-MK2
Enterovirus C [8] = assay: Antiviral activity against Poliovirus 10242 serotype PV1 obtained from circulating vaccine infected in […] LLC-MK2 cells assessed as inhibition of viral-replication induced cytopathic effect; conditions: 10242 serotype PV1, LLC-MK2
Enterovirus C [9] = assay: Antiviral activity against Poliovirus 10690 serotype PV1 obtained from circulating vaccine infected in […] LLC-MK2 cells assessed as inhibition of viral-replication induced cytopathic effect; conditions: 10690 serotype PV1, LLC-MK2
Enterovirus C [10] = assay: Antiviral activity against Poliovirus 10691 serotype PV1 obtained from circulating vaccine infected in […] LLC-MK2 cells assessed as inhibition of viral-replication induced cytopathic effect; conditions: 10691 serotype PV1, LLC-MK2
Enterovirus C [11] = assay: Antiviral activity against Poliovirus 10692 serotype PV1 obtained from circulating vaccine infected in […] LLC-MK2 cells assessed as inhibition of viral-replication induced cytopathic effect; conditions: 10692 serotype PV1, LLC-MK2
Enterovirus C [12] = assay: Antiviral activity against Poliovirus 10693 serotype PV1 obtained from circulating vaccine infected in […] LLC-MK2 cells assessed as inhibition of viral-replication induced cytopathic effect; conditions: 10693 serotype PV1, LLC-MK2
Enterovirus C [13] = assay: Antiviral activity against Poliovirus 10694 serotype PV1 obtained from immunodeficient chronic excretor infected in […] LLC-MK2 cells assessed as inhibition of viral-replication induced cytopathic effect; conditions: 10694 serotype PV1, LLC-MK2
Enterovirus C [14] = assay: Antiviral activity against Poliovirus 10695 serotype PV1 obtained from immunodeficient chronic excretor infected in […] LLC-MK2 cells assessed as inhibition of viral-replication induced cytopathic effect; conditions: 10695 serotype PV1, LLC-MK2
Enterovirus C [15] = assay: Antiviral activity against Poliovirus 10668 serotype PV1 obtained from immunodeficient chronic excretor infected in […] LLC-MK2 cells assessed as inhibition of viral-replication induced cytopathic effect; conditions: 10668 serotype PV1, LLC-MK2
Enterovirus C [16] = assay: Antiviral activity against Poliovirus 10689 serotype PV1 obtained from immunodeficient chronic excretor infected in […] LLC-MK2 cells assessed as inhibition of viral-replication induced cytopathic effect; conditions: 10689 serotype PV1, LLC-MK2
Enterovirus C [17] = assay: Antiviral activity against Poliovirus 10223 serotype PV1 obtained from immunodeficient chronic excretor infected in […] LLC-MK2 cells assessed as inhibition of viral-replication induced cytopathic effect; conditions: 10223 serotype PV1, LLC-MK2
Enterovirus C [18] = assay: Antiviral activity against Poliovirus 10222 serotype PV1 obtained from immunodeficient chronic excretor infected in […] LLC-MK2 cells assessed as inhibition of viral-replication induced cytopathic effect; conditions: 10222 serotype PV1, LLC-MK2
Enterovirus C [19] = assay: Antiviral activity against Poliovirus 10225 serotype PV1 obtained from immunodeficient chronic excretor infected in […] LLC-MK2 cells assessed as inhibition of viral-replication induced cytopathic effect; conditions: 10225 serotype PV1, LLC-MK2
Enterovirus C [20] = assay: Antiviral activity against Poliovirus 10224 serotype PV1 obtained from immunodeficient chronic excretor infected in […] LLC-MK2 cells assessed as inhibition of viral-replication induced cytopathic effect; conditions: 10224 serotype PV1, LLC-MK2
Enterovirus C [21] = assay: Antiviral activity against Poliovirus Brunhilde serotype PV1 infected in […] LLC-MK2 cells assessed as inhibition of viral-replication induced cytopathic effect
Enterovirus C [22] = assay: Antiviral activity against Poliovirus Mahoney serotype PV1 infected in […] LLC-MK2 cells assessed as inhibition of viral-replication induced cytopathic effect
Enterovirus C [23] = assay: Antiviral activity against Poliovirus PV1-LSc/2ab serotype PV1 vaccine-derived infected in […] LLC-MK2 cells assessed as inhibition of viral-replication induced cytopathic effect; conditions: PV1-LSc/2ab serotype PV1, LLC-MK2
Enterovirus C [24] = assay: Antiviral activity against Poliovirus 10229 serotype PV2 obtained from circulating vaccine infected in […] LLC-MK2 cells assessed as inhibition of viral-replication induced cytopathic effect; conditions: 10229 serotype PV2, LLC-MK2
Enterovirus C [25] = assay: Antiviral activity against Poliovirus 10230 serotype PV2 obtained from circulating vaccine infected in […] LLC-MK2 cells assessed as inhibition of viral-replication induced cytopathic effect; conditions: 10230 serotype PV2, LLC-MK2
Enterovirus C [26] = assay: Antiviral activity against Poliovirus 10231 serotype PV2 obtained from circulating vaccine infected in […] LLC-MK2 cells assessed as inhibition of viral-replication induced cytopathic effect; conditions: 10231 serotype PV2, LLC-MK2
Enterovirus C [27] = assay: Antiviral activity against Poliovirus 10232 serotype PV2 obtained from circulating vaccine infected in […] LLC-MK2 cells assessed as inhibition of viral-replication induced cytopathic effect; conditions: 10232 serotype PV2, LLC-MK2
Enterovirus C [28] = assay: Antiviral activity against Poliovirus 10233 serotype PV2 obtained from circulating vaccine infected in […] LLC-MK2 cells assessed as inhibition of viral-replication induced cytopathic effect; conditions: 10233 serotype PV2, LLC-MK2
Enterovirus C [29] = assay: Antiviral activity against Poliovirus 10234 serotype PV2 obtained from circulating vaccine infected in […] LLC-MK2 cells assessed as inhibition of viral-replication induced cytopathic effect; conditions: 10234 serotype PV2, LLC-MK2
Enterovirus C [30] = assay: Antiviral activity against Poliovirus 10219 serotype PV2 obtained from circulating vaccine infected in […] LLC-MK2 cells assessed as inhibition of viral-replication induced cytopathic effect; conditions: 10219 serotype PV2, LLC-MK2
Enterovirus C [31] = assay: Antiviral activity against Poliovirus 10220 serotype PV2 obtained from circulating vaccine infected in […] LLC-MK2 cells assessed as inhibition of viral-replication induced cytopathic effect; conditions: 10220 serotype PV2, LLC-MK2

COc1ccc(OCc2ccc(COc3c(Cl)cccc3Cl)cc2)c(Cl)c1
EC50 (Enterovirus C [1]): 18 nM
EC50 (Enterovirus C [2]): 29 nM
EC50 (Enterovirus C [3]): 14 nM
EC50 (Enterovirus C [4]): 11 nM
EC50 (Enterovirus C [5]): 14 nM
EC50 (Enterovirus C [6]): 15 nM
EC50 (Enterovirus C [7]): 83 nM
EC50 (Enterovirus C [8]): 17 nM
EC50 (Enterovirus C [9]): 29 nM
EC50 (Enterovirus C [10]): 18 nM
EC50 (Enterovirus C [11]): 29 nM
EC50 (Enterovirus C [12]): 8 nM
EC50 (Enterovirus C [13]): 14 nM
EC50 (Enterovirus C [14]): 8 nM
EC50 (Enterovirus C [15]): 21 nM
EC50 (Enterovirus C [16]): 42 nM
EC50 (Enterovirus C [17]): 10 nM
EC50 (Enterovirus C [18]): 15 nM
EC50 (Enterovirus C [19]): 17 nM
EC50 (Enterovirus C [20]): 69 nM
EC50 (Enterovirus C [21]): 18 nM
EC50 (Enterovirus C [22]): 76 nM
EC50 (Enterovirus C [23]): 17 nM
EC50 (Enterovirus C [24]): 20 nM
EC50 (Enterovirus C [25]): 36 nM
EC50 (Enterovirus C [26]): 28 nM
EC50 (Enterovirus C [27]): 19 nM
EC50 (Enterovirus C [28]): 24 nM
EC50 (Enterovirus C [29]): 9 nM
EC50 (Enterovirus C [30]): 23 nM
EC50 (Enterovirus C [31]): 10 nM
